Patent US20060069132A1, “Azolecarboxamide herbicides” (priority 2004, published 2006)

Legend:
wheat cv. Retical = experiment: Test H safening on wheat by naphthalic anhydride seed treatment, pre-/postemergence; type: in vivo, Triticum aestivum; parameters: key to Response of wheat, Without naphthalic anhydride seed treatment: 0 = no effect, 100 = complete plant death, vs untreated control
Method: This test evaluated the safening of compounds of the invention on wheat (Triticum aestivumL.) cv. ‘Retical’ by seed treatment with naphthalic anhydride. Some of the wheat seed was treated with napthalic anhydride as a 1% by weight seed dressing. The wheat seed were planted in pots containing pasteurized Sassafras sandy loam soil. For postemergence testing the plants were grown 8 days to the 2-leaf stage at time of treatment. Preemergence treatments were applied the same day that the seeds were planted. Treatments were applied by spraying the test compounds formulated in a non-phytotoxic solvent mixture, using a flat fan nozzle and a spray volume of 280 L/ha. The preemergence treatments were triply replicated and the results subsequently averaged. The pots were placed on a growth chamber bench using a complete randomized block design for the preemergence test except for the first replicate, which was unrandomized. The plants were grown in the growth chamber and watered as needed with a dilute nutrient solution containing 200 ppm of N. Illumination was provided by fluorescent lamps giving 200-300 μE/m^2/S of photosynthetically active radiation over a 14-hour photoperiod. The temperature was maintained at 23±2° C. during the day and 17±2° C. at night. The effects of the treatments were rated 25 days after preemergence treatment and 14 days after postemergence treatment. The plant response was visually rated in comparison to untreated controls using a scale of 0 to 100, with 0 representing no effect and 100 representing complete plant death. The results for the compounds tested preemergence are listed in Table H1, and the results for the compounds tested postemergence are listed in Table H2.

wild oat = experiment: Test F pre-/postemergence herbicide test; type: in vivo, Avena fatua
From the text: (§1) Seeds of plant species selected from annual blugrass (Poa annua L.), blackgrass (Alopecurus myosuroides Huds.), catchweed bedstraw (Gallium aparine L.), common chickweed (Stellaria media (L.) Vill./Cyr.), downy bromegrass (Bromus tectorum L.), green foxtail (Setaria viridis (L.) Beauv.), Italian ryegrass (Lolium multiflorum Lam.), kochia (Kochia scoparia (L.). Schrad.), lambsquarters (Chenopodium album L.), littleseed canarygrass (Phalaris minor Retz.), pigweed (Amaranthus retroflexus L.), Russian thistle (Salsola kali L. ssp. Ruthenica (Iljin) Soo), wild buckwheat (Polygonum convolvulus L.), wild mustard (Sinapis arvensis L.), wild oat (Avena fatua L.), windgrass (Apera spica-venti (L.) Beauv.), winter barley (Hordeum vulgare L.), and wheat (Triticum aestivum L.) were planted and treated preemergence with test chemicals formulated in a non-phytotoxic solvent mixture which included a surfactant.
(§2) At the same time, plants selected from these crop and weed species were treated with postemergence applications of some of the test chemicals formulated in the same manner. Plants ranged in height from 2 to 18 cm (1- to 4-leaf stage) for postemergence treatments. Treated plants and controls were maintained in a greenhouse for 12 to 14 days, after which time all species were compared to controls and visually evaluated. Plant response ratings, summarized in Table F, are based on a scale of 0 to 100 where 0 is no effect and 100 is complete control. A dash (-) response means no test result.

common chickweed = experiment: Test F pre-/postemergence herbicide test; type: in vivo, Stellaria media
From the text: as §1, §2

wheat = experiment: Test F pre-/postemergence herbicide test; type: in vivo, Triticum aestivum
From the text: as §1, §2

wild mustard = experiment: Test F pre-/postemergence herbicide test; type: in vivo, Sinapis arvensis
From the text: as §1, §2

Italian ryegrass = experiment: Test F pre-/postemergence herbicide test; type: in vivo, Lolium multiflorum
From the text: as §1, §2

lambsquarters = experiment: Test F pre-/postemergence herbicide test; type: in vivo, Chenopodium album
From the text: as §1, §2

annual blugrass = experiment: Test F pre-/postemergence herbicide test; type: in vivo, Poa annua
From the text: as §1, §2

green foxtail = experiment: Test F pre-/postemergence herbicide test; type: in vivo, Setaria viridis
From the text: as §1, §2

CCNC(=O)c1ccc(F)c(NC(=O)c2cc(C(C)(C)C)nn2CC)c1 [Compound 2, 3-(1,1-dimethylethyl)-1-ethyl-N-[5-[(ethylamino)carbonyl]-2-fluorophenyl]-1H-pyrazole-5-carboxamide]
Response of wheat, With 1% naphthalic anhydride seed treatment (wheat cv. Retical; postemergence, 62 g a.i./ha): 30 | Response of wheat, Without naphthalic anhydride seed treatment (wheat cv. Retical; postemergence, 62 g a.i./ha): 60 | Response of wheat, With 1% naphthalic anhydride seed treatment (wheat cv. Retical; postemergence, 125 g a.i./ha): 65 | Response of wheat, Without naphthalic anhydride seed treatment (wheat cv. Retical; postemergence, 125 g a.i./ha): 75 | Response of wheat, With 1% naphthalic anhydride seed treatment (wheat cv. Retical; preemergence, 62 g a.i./ha): 50 | Response of wheat, Without naphthalic anhydride seed treatment (wheat cv. Retical; preemergence, 62 g a.i./ha): 62 | Response of wheat, With 1% naphthalic anhydride seed treatment (wheat cv. Retical; preemergence, 125 g a.i./ha): 72 | Response of wheat, Without naphthalic anhydride seed treatment (wheat cv. Retical; preemergence, 125 g a.i./ha): 82

CCn1nc(C(C)(C)C)cc1C(=O)Nc1cccc(C(N)=O)n1 [Compound 162, 6-[[[3-(1,1-dimethylethyl)-1-ethyl-1H-pyrazol-5-yl]carbonyl]amino]-2-pyridinecarboxamide]
Plant response rating (0-100), Oat, Wild (wild oat; Postemergence, 62 g ai/ha): 70 | Plant response rating (0-100), Oat, Wild (wild oat; Postemergence, 125 g ai/ha): 80 | Plant response rating (0-100), Oat, Wild (wild oat; Postemergence, 250 g ai/ha): 100 | Plant response rating (0-100), Oat, Wild (wild oat; Postemergence, 500 g ai/ha): 100 | Plant response rating (0-100), Oat, Wild (wild oat; Preemergence, 62 g ai/ha): 100 | Plant response rating (0-100), Oat, Wild (wild oat; Preemergence, 125 g ai/ha): 100 | Plant response rating (0-100), Oat, Wild (wild oat; Preemergence, 250 g ai/ha): 100 | Plant response rating (0-100), Oat, Wild (wild oat; Preemergence, 500 g ai/ha): 100 | Plant response rating (0-100), Chickweed (common chickweed; Postemergence, 62 g ai/ha): 70 | Plant response rating (0-100), Chickweed (common chickweed; Postemergence, 125 g ai/ha): 80 | Plant response rating (0-100), Chickweed (common chickweed; Postemergence, 250 g ai/ha): 100 | Plant response rating (0-100), Chickweed (common chickweed; Postemergence, 500 g ai/ha): 100 | Plant response rating (0-100), Chickweed (common chickweed; Preemergence, 62 g ai/ha): 100 | Plant response rating (0-100), Chickweed (common chickweed; Preemergence, 125 g ai/ha): 100 | Plant response rating (0-100), Chickweed (common chickweed; Preemergence, 250 g ai/ha): 100 | Plant response rating (0-100), Chickweed (common chickweed; Preemergence, 500 g ai/ha): 100 | Plant response rating (0-100), Wheat (wheat; Postemergence, 62 g ai/ha): 20 | Plant response rating (0-100), Wheat (wheat; Postemergence, 125 g ai/ha): 40 | Plant response rating (0-100), Wheat (wheat; Postemergence, 250 g ai/ha): 50 | Plant response rating (0-100), Wheat (wheat; Postemergence, 500 g ai/ha): 70 | Plant response rating (0-100), Wheat (wheat; Preemergence, 62 g ai/ha): 60 | Plant response rating (0-100), Wheat (wheat; Preemergence, 125 g ai/ha): 100 | Plant response rating (0-100), Wheat (wheat; Preemergence, 250 g ai/ha): 100 | Plant response rating (0-100), Wheat (wheat; Preemergence, 500 g ai/ha): 100 | Plant response rating (0-100), Mustard, Wild (wild mustard; Postemergence, 62 g ai/ha): 60 | Plant response rating (0-100), Mustard, Wild (wild mustard; Postemergence, 125 g ai/ha): 80 | Plant response rating (0-100), Mustard, Wild (wild mustard; Postemergence, 250 g ai/ha): 100 | Plant response rating (0-100), Mustard, Wild (wild mustard; Postemergence, 500 g ai/ha): 100 | Plant response rating (0-100), Mustard, Wild (wild mustard; Preemergence, 62 g ai/ha): 80 | Plant response rating (0-100), Mustard, Wild (wild mustard; Preemergence, 125 g ai/ha): 80 | Plant response rating (0-100), Mustard, Wild (wild mustard; Preemergence, 250 g ai/ha): 100 | Plant response rating (0-100), Mustard, Wild (wild mustard; Preemergence, 500 g ai/ha): 100 | Response of wheat, With 1% naphthalic anhydride seed treatment (wheat cv. Retical; postemergence, 62 g a.i./ha): 5 | Response of wheat, Without naphthalic anhydride seed treatment (wheat cv. Retical; postemergence, 62 g a.i./ha): 5 | Response of wheat, With 1% naphthalic anhydride seed treatment (wheat cv. Retical; postemergence, 125 g a.i./ha): 30 | Response of wheat, Without naphthalic anhydride seed treatment (wheat cv. Retical; postemergence, 125 g a.i./ha): 70 | Response of wheat, With 1% naphthalic anhydride seed treatment (wheat cv. Retical; preemergence, 62 g a.i./ha): 47 | Response of wheat, Without naphthalic anhydride seed treatment (wheat cv. Retical; preemergence, 62 g a.i./ha): 60 | Response of wheat, With 1% naphthalic anhydride seed treatment (wheat cv. Retical; preemergence, 125 g a.i./ha): 62 | Response of wheat, Without naphthalic anhydride seed treatment (wheat cv. Retical; preemergence, 125 g a.i./ha): 98 | Response of wheat, With 1% naphthalic anhydride seed treatment (wheat cv. Retical; preemergence, 250 g a.i./ha): 96 | Response of wheat, Without naphthalic anhydride seed treatment (wheat cv. Retical; preemergence, 250 g a.i./ha): 98 | Plant response rating (0-100), Ryegrass, Italian (Italian ryegrass; Postemergence, 62 g ai/ha): 70 | Plant response rating (0-100), Ryegrass, Italian (Italian ryegrass; Postemergence, 125 g ai/ha): 80 | Plant response rating (0-100), Ryegrass, Italian (Italian ryegrass; Postemergence, 250 g ai/ha): 90 | Plant response rating (0-100), Ryegrass, Italian (Italian ryegrass; Postemergence, 500 g ai/ha): 100 | Plant response rating (0-100), Ryegrass, Italian (Italian ryegrass; Preemergence, 62 g ai/ha): 100 | Plant response rating (0-100), Ryegrass, Italian (Italian ryegrass; Preemergence, 125 g ai/ha): 100 | Plant response rating (0-100), Ryegrass, Italian (Italian ryegrass; Preemergence, 250 g ai/ha): 100 | Plant response rating (0-100), Ryegrass, Italian (Italian ryegrass; Preemergence, 500 g ai/ha): 100 | Plant response rating (0-100), Lambsquarters (lambsquarters; Postemergence, 62 g ai/ha): 100 | Plant response rating (0-100), Lambsquarters (lambsquarters; Postemergence, 125 g ai/ha): 100 | Plant response rating (0-100), Lambsquarters (lambsquarters; Postemergence, 250 g ai/ha): 100 | Plant response rating (0-100), Lambsquarters (lambsquarters; Postemergence, 500 g ai/ha): 100 | Plant response rating (0-100), Lambsquarters (lambsquarters; Preemergence, 62 g ai/ha): 100 | Plant response rating (0-100), Lambsquarters (lambsquarters; Preemergence, 125 g ai/ha): 100 | Plant response rating (0-100), Lambsquarters (lambsquarters; Preemergence, 250 g ai/ha): 100 | Plant response rating (0-100), Lambsquarters (lambsquarters; Preemergence, 500 g ai/ha): 100 | Plant response rating (0-100), Bluegrass (annual blugrass; Postemergence, 62 g ai/ha): 60 | Plant response rating (0-100), Bluegrass (annual blugrass; Postemergence, 125 g ai/ha): 60 | Plant response rating (0-100), Bluegrass (annual blugrass; Postemergence, 250 g ai/ha): 90 | Plant response rating (0-100), Bluegrass (annual blugrass; Postemergence, 500 g ai/ha): 100 | Plant response rating (0-100), Bluegrass (annual blugrass; Preemergence, 62 g ai/ha): 100 | Plant response rating (0-100), Bluegrass (annual blugrass; Preemergence, 125 g ai/ha): 100 | Plant response rating (0-100), Bluegrass (annual blugrass; Preemergence, 250 g ai/ha): 100 | Plant response rating (0-100), Bluegrass (annual blugrass; Preemergence, 500 g ai/ha): 100 | Plant response rating (0-100), Foxtail, Green (green foxtail; Postemergence, 62 g ai/ha): 50 | Plant response rating (0-100), Foxtail, Green (green foxtail; Postemergence, 125 g ai/ha): 50 | Plant response rating (0-100), Foxtail, Green (green foxtail; Postemergence, 250 g ai/ha): 60 | Plant response rating (0-100), Foxtail, Green (green foxtail; Postemergence, 500 g ai/ha): 100 | Plant response rating (0-100), Foxtail, Green (green foxtail; Preemergence, 62 g ai/ha): 70 | Plant response rating (0-100), Foxtail, Green (green foxtail; Preemergence, 125 g ai/ha): 100 | Plant response rating (0-100), Foxtail, Green (green foxtail; Preemergence, 250 g ai/ha): 100 | Plant response rating (0-100), Foxtail, Green (green foxtail; Preemergence, 500 g ai/ha): 100
